From US9066938B2, “GPBP-1 inhibition and its therapeutic use” (Fibrostatin S.L., priority 2012, dated 2015)
Counter-ions that a name gives are not always drawn.

Tests used:
[1] = tested on: CSC/SP compartment of A549 cell cultures; assay: Side population (CSC/SP) staining with Hoechst 33342, flow cytometry; assay type: cell-based, human; conditions: for cell content of the CSC/SP compartment: single compound
Experimental: FIG. 9. […] A, cultures of A549 cells were incubated with Hoescht 33342 in the absence (−) or presence (+) of verapamil (50 μM) and fumitremorgin C (10 μM). Circled area (R2) denotes the region containing the flow cytometry events representing CSC/SP cells. B, shown are the relative abundance of CSC/SP cells (%) in cell cultures untreated (control) or treated with the indicated compounds.
A549 cells were suspended at 10^6 cells/mL in culture medium containing 10 mM Hepes (previously warmed at 37° C.). Hoechst 33342 was added at 5 μg/mL and cells incubated in a 37° C. bath with shaking for 90 min in the dark. Before incubation (and after staining) an aliquot of 1 mL was taken and verapamil (50 μM) and fumitremorgin C (10 μM) added. Cells were centrifuged at 300×g for 5 min at 4° C. and suspended in cold medium with 10 mM Hepes. Cells were kept at 4° C. until analysis. Analysis of Hoechst 33342 efflux was assessed using a Flow Cytometer with incident 350 nm ultraviolet light. The resulting fluorescence was measured at two wavelengths using 424/44 BP and 675 LP filters that allow detection of Hoechst blue and red, respectively. […] Doxorubicin content in either population was estimated with incident 488 nm blue light and 585/40 filter. Verapamil and fumitremorgin C werer used to identify SP region.

JLSM cells = assay: Cell viability of JLSM primary cultures (lung epidermoid carcinoma); assay type: cell-based, human; conditions: 36 h
Experimental: FIG. 14. T12 sharply reduce JLSM cell viability. A and B, JLSM cells were seeded (10.000 cells per cm^2) on collagen-I coated 96-well culture plate. Cells were settled for 4 h and subjected to the indicated treatments and cellular viability assayed after 36 h. Control bars represent cells without T12 or […]. JLSM cells were obtained from a human lung epidermoid carcinoma biopsy following standard procedures. […] Subsequently, explants were further incubated with 1 mL per well of serum-free B-ALITM air-liquid interface medium from CloneticsTM (B-ALI medium). When cells started to grow, explants were removed and cells passed to a collagen I coated flask with fresh medium. Cultures were kept in a humidified 37° C. incubator with 5% (v/v) CO2 and 95% (v/v) air. Cytotoxicity assays were performed with alamarBlue® reagent (Invitrogen) according to manufacturer's instructions. A549 cells were seeded on 96-well culture plates (7,500 cells/well) and allowed to settle during 4 h. Then, cells were cultured with individual peptidomimetics at concentrations ranging from 0 to 50 μM, in presence of doxorubicin at concentrations ranging from 0 to 10 μM for 36 h. […] Fluorescence was measured using 560EX nm/590EM nm filter settings with a SpectraMax […] […] Blank wells containing media were used to determine background fluorescence.

[2] = tested on: ovarian cancer cells (OVCAR-3); assay: Response of OVCAR-3 ovarian cancer cells to T12; assay type: cell-based; conditions: cells that did not increase GPBP expression in response to doxorubicin
[3] = tested on: CDKN1A (p21) and DDIT3 (CHOP) genes; assay: qPCR of CDKN1A (p21) and DDIT3 (CHOP) mRNA in A549 cells; assay type: cell-based, human; conditions: doxorubicin 1 μM, T12 50 μM, 24 h
Experimental: FIG. 3. T12 enhances doxorubicin-induced expression of CDKN1A (p21) and DDIT3 (CHOP) genes in A549 cells. Cells were treated with doxorubicin (1 μM) and/or T12 (50 μM) for 24 h. Total RNA was isolated, reverse-transcribed, and CDKN1A (p21) and DDIT3 (CHOP) mRNA levels assessed by qPCR using TaqMan™ commercial probes and primers. Results are expressed as relative quantity (RQ) respect to untreated cells. A representative assay is shown.
Total RNA from cell samples was extracted using Ilustra RNAspin™ Mini (Ge Healthcare) according to the manufacturer's instructions. One μg of total RNA from each sample was converted to cDNA (RT) using the High Capacity cDNA Reverse Transcription Kit (Applied Biosystems). For Real-Time PCR (qPCR), 1.5 μl of cDNA was mixed with TaqMan™ Gene Expression Master Mix and the specific TaqMan™ probes and primers for COL4A3BP/GPBP, DDIT3/CHOP, CDKN1A/p21, PROM1/CD133, NANOG, MMP10 and HPRT1, all from Applied Biosystems. Hypoxanthine-guanine phosphoribosyltransferase (HPRT1) primer was used as endogenous control. qPCR was performed on a StepOnePlus™ Real-Time PCR system (Applied Biosystems) according to manufacturer's recommendations. The relative levels of mRNAs were calculated with the ΔΔCt method using untreated samples as reference (the comparative Ct method).

A549 cells = assay: T12 LC50 in A549 cells cultured without serum to expand the CSC/SP compartment; assay type: cell-based; conditions: Homo sapiens
Experimental: FIG. 16. GPBP is over-expressed in A549 cells grown in B-ALI media that allows CSC/SP expansion. Bars represent the relative expression of the indicated genes in A549 cells grown with the indicated culture medium during the indicated times. A549 cells grown in DMEM: Ham's F12 medium supplemented with 2 mM L-glutamine and 10% fetal bovine serum (day 0) were used as reference.
Chemoresistance is widely accepted to depend on epigenetic changes occurring at the CSC/SP compartment (Alberts et al. 2007). Accordingly GPBP-mediated doxorubicin resistance is expected to occur on CSC/SP compartment. To test this we cultured A549 cells in the absence of serum using culture conditions known to expand CSC/SP compartment.

COc1cccc2c1C(=O)c1c(O)c3c(c(O)c1C2=O)C[C@@](O)(C(=O)CO)C[C@@H]3O[C@H]1C[C@H](N)[C@H](O)[C@H](C)O1 [doxorubicin, doxorubicin hydrochloride, reference compound]
cell content of the CSC/SP compartment [1]: reduction | biological activity on JLSM primary cultures, single compound (JLSM cells): virtually resistant

COc1ccc(-c2ccc(-c3cccc(C)c3)c(C)c2)c(CCC(=O)O)c1 [T12, 3-[4″-methoxy-3,2′-dimethyl-(1,1′;4′,1″)terphenyl-2″-yl] propionic acid]
responsiveness of OVCAR-3 cells to the compound [2]: not responsive | induction of CDKN1A (p21) and DDIT3 (CHOP) expression together with doxorubicin [3]: synergistic | CSC/SP compartment relative to untreated cultures, co-treatment ([1]; doxorubicin and T12 co-treatment): one fourth | cell content of the CSC/SP compartment [1]: reduction | biological activity on JLSM primary cultures, single compound (JLSM cells): highly sensitive | CC50 (A549 cells; A549, A549 comparison culture (CSC/SP not expanded)): 125 µM | CC50 (A549 cells; A549, A549 cultured in the absence of serum, expanded CSC/SP compartment): 15 µM
